{"source": "patent US20150141580A1", "about": "“OPTIMIZED DRUG CONJUGATES” (SynDevRx, Inc., priority 2010, published 2015)", "assay": "Pharmacokinetics of polymer conjugate, plasma SDX-7539 by LC-MS/MS", "type": "in vivo, Sprague-Dawley rats", "conditions": "after SDX-7539 30 mg/kg or SDX-7320 200 mg/kg IV, rat", "description": "FIG. 6 is a graph showing the plasma concentration of the active metabolite, SDX-7539, as a function of time in Sprague-Dawley rats, to which either the polymer conjugate SDX-7320 (single bolus, intravenous injection, 200 mg/kg) or the small molecule SDX-7539 (single bolus, intravenous injection, 30 mg/kg) has been administered.\nThe polymer conjugate, SDX-7320, or the in vivo release product, SDX-7539 were administered to Sprague-Dawley rats (N=3). Blood was collected over 48 hours after dosing to determine the plasma concentration of SDX-7539 by LC-MS/MS. The LLOQ for SDX-7539 was 2.5 nM. The terminal elimination half-life for SDX-7539 was estimated by fitting a linear regression to the In[SDX-7539] versus time data. […] Cmax for the polymer is about 2% of the value for the small molecule."}
{"smiles": "CO[C@@H]1[C@H](OC(=O)NC2CCC(N)CC2)CC[C@]2(CO2)[C@H]1[C@@]1(C)O[C@@H]1CC=C(C)C", "note": "(stereo partly shown) [SDX-7539]", "values": [{"measurement": "AUC for SDX-7539", "result": "comparable"}]}
